Source: patent US10786508B2, “Substituted imidazo[1,5-A]-pyrimidines and their use in the treatment of medical disorders” (Lysosomal Therapeutics Inc., priority 2014, dated 2020)
≈ marks a conversion by molar mass, not a printed value.

Key:
[1] = target: T1, glucocerebrosidase (Gcase) (Homo sapiens, UniProt P04062); experiment: Glucocerebrosidase (Gcase) activation assay, 4-methylumbelliferyl-beta-D-glucopyranoside substrate, with saposin C; type: biochemical; settings: 10 nM GCase, 100 nM saposin C, pH 4.7; for activation at 0.1 µM: read-out: Percent Gease Activation 0.1 μM Test Compound; for activation at 1 µM: read-out: Percent Gease Activation 1 μM Test Compound
T1 construct: micellar solution containing 10 nM GCase and 100 nM saposin C
T1 sequence (P04062 40-536): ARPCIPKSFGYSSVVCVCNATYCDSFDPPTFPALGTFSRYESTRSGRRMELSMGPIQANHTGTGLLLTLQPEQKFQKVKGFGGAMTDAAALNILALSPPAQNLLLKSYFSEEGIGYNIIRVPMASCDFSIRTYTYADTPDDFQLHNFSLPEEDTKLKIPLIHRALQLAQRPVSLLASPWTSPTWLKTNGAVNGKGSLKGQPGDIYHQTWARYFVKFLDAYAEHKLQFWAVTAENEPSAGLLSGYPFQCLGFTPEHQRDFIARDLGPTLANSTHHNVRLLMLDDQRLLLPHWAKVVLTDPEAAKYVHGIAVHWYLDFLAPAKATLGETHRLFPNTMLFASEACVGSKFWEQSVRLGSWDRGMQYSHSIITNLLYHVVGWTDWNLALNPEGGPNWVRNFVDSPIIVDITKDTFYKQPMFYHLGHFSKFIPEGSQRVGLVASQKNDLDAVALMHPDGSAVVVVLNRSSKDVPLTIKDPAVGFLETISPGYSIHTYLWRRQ
Procedure: The ability of exemplary compounds to activate glucocerebrosidase (Gcase) was measured.
A 484 μL aliquot of a 1.0 mg/mL solution of phosphatidylserine (PS) (Sigma P7769) in chloroform was evaporated under a stream of nitrogen for 1 hour. The lipid film was dissolved over 4 minutes of vigorous vortexing in 40 mL of 176 mM K2HPO4/50 mM citric acid (pH 4.7) containing 7.5 μL of triton X-100, resulting in a mixed micellar preparation with a composition of 0.32 mM triton and 0.37 mol % PS. 4-Methylumbelliferyl-beta-D-glucopyranoside (ACROS-337025000) was dissolved in the micellar solution to a final concentration of 2 mM for use as the reaction substrate.
Test compounds were diluted to the desired concentrations with dimethylsulfoxide (DMSO) from 10 mM stocks, and 0.41 μL of the DMSO compound mixture was added to 100 μL of micellar solution containing 10 nM GCase and 100 nM saposin C (Enzo ALX-201-262-C050). Pre-incubation was allowed to occur for 30 minutes at room temperature, after which the reaction was initiated by combining 25 μL of substrate solution with 25 μL of compound/GCase/saposin mixture. The reaction proceeded for 15 minutes at room temperature and was stopped by adding 150 μL of 1M glycine, pH 12.5. The endpoint of the reaction was monitored by measuring fluorescence intensity (excitation: 365 nm; emission: 440 nm) on a SpectraMax i3 instrument (Molecular Devices). Test compounds were screened at 1.0 and 0.1 μM final concentration, and subsequent 8-point dose response curves were obtained using 3-fold dilutions from a maximum final concentration of 5 μM.
For experiments in which the test compound was used at a concentration of 1.0 μM, the symbol “+” indicates less than 30% Gcase activation; the symbol “++” indicates Gcase activation in the range of 30% up to 60%; and the symbol “+++” indicates Gcase activation greater than 60%. For experiments in which the test compound was used at a concentration of 0.1 μM, the symbol “*” indicates less than 10% Gcase activation; the symbol “**” indicates Gcase activation in the range of 10% up to 20%; and the symbol “***” indicates greater than 20% Gcase activation.

[2] = Compound solubility in water; type: physicochemical

SMILES | activation at 0.1 µM ([1]; 0.1 μM test compound) | activation at 1 µM ([1]; 1 μM test compound) | solubility [2] | Percent Gease Activation 0.1 μM Test Compound ([1]; 0.1 μM test compound) | Percent Gease Activation 1 μM Test Compound ([1]; 1 μM test compound) | Compound Solubility in Water [2]
Cc1cc(C)n2cnc(C(=O)Nc3ccc(-c4cocn4)cc3)c2n1 [III-3] | < 10% | 30 to 60% | 4.8 µg/mL (≈ 14.4 µM) |  |  | 
CCCCCO[C@H]1CC[C@H](NC(=O)c2ncn3c(C)cc(C)nc23)CC1 [III-70] | 10 to 20% | 30 to 60% | 19.6 µg/mL (≈ 54.7 µM) |  |  | 
[2H]C1(NC(=O)c2ncn3c(C)cc(C)nc23)CCCCc2ccccc21 (stereo not drawn) [III-38] | 10 to 20% | > 60% | 14.9 µg/mL (≈ 44.4 µM) |  |  | 
CCOCc1cccc(C(C)(C)NC(=O)c2ncn3c(COC)cc(C(C)C)nc23)c1 [III-61] | < 10% | 30 to 60% | 20.6 µg/mL (≈ 48.5 µM) |  |  | 
Cc1cc(C)n2cnc(C(=O)Nc3ccc4nc(C)sc4c3)c2n1 [III-21] | < 10% | < 30% | 1.1 µg/mL (≈ 3.26 µM) |  |  | 
COc1ccc(F)cc1C(C)NC(=O)c1ncn2c(C)cc(C)nc12 (stereo not drawn) [III-79] | < 10% | 30 to 60% | 32 µg/mL (≈ 93.5 µM) |  |  | 
Cc1cc(C)n2cnc(C(=O)Nc3ccc4nccc(O)c4c3)c2n1 [III-24] | < 10% | < 30% | 6 µg/mL (≈ 18 µM) |  |  | 
COc1ccccc1[C@H](C)NC(=O)c1ncn2c(C)cc(C)nc12 [III-75] | < 10% | 30 to 60% | 22.6 µg/mL (≈ 69.7 µM) |  |  | 
Cc1cc(C)n2cnc(C(=O)Nc3ccc4c(c3)OCO4)c2n1 [III-12] | < 10% | < 30% | 3.4 µg/mL (≈ 11 µM) |  |  | 
COCC#Cc1ccc(NC(=O)c2ncn3c(C)cc(C)nc23)cc1 [III-2] | < 10% | 30 to 60% | 5.8 µg/mL (≈ 17.3 µM) |  |  | 
COc1ccccc1[C@@H](C)NC(=O)c1ncn2c(C)cc(C)nc12 [III-76] | < 10% | 30 to 60% | 23 µg/mL (≈ 70.9 µM) |  |  | 
COCc1cc(C2CC2)nc2c(C(=O)NC(C)(C)c3cccc(OC4CC4)c3)ncn12 [III-56] | 10 to 20% | > 60% | 14.4 µg/mL (≈ 34.2 µM) |  |  | 
Cc1cc(C)n2cnc(C(=O)Nc3ccc4cn[nH]c4c3)c2n1 [III-11] | < 10% | < 30% | 0.5 µg/mL (≈ 1.63 µM) |  |  | 
O=C(NC1CCCc2ccccc21)c1ncn2c(C(F)F)cc(C(F)F)nc12 (stereo not drawn) [III-32] | < 10% | < 30% | 17.2 µg/mL (≈ 43.8 µM) |  |  | 
Cc1cc(C)n2cnc(C(=O)Nc3cccc4c3CCC4)c2n1 [III-65] | 10 to 20% | > 60% | 0.9 µg/mL (≈ 2.94 µM) |  |  | 
COCc1cc(C2CC2)n2cnc(C(=O)NC(C)(C)c3cccc(C#N)c3)c2n1 [III-54] | < 10% | < 30% | 23.4 µg/mL (≈ 60.1 µM) |  |  | 
C#Cc1ccc(NC(=O)c2ncn3c(C)cc(C)nc23)cc1 [III-1] | 10 to 20% | > 60% | < 1.5 µg/mL |  |  | 
CCCCCCO[C@H]1CC[C@H](NC(=O)c2ncn3c(C)cc(C)nc23)C1 [III-47] | < 10% | > 60% | 30.6 µg/mL (≈ 85.4 µM) |  |  | 

SMILES | activation at 0.1 µM ([1]; 0.1 μM test compound) | activation at 1 µM ([1]; 1 μM test compound) | solubility [2] | Percent Gease Activation 0.1 μM Test Compound ([1]; 0.1 μM test compound) | Percent Gease Activation 1 μM Test Compound ([1]; 1 μM test compound) | Compound Solubility in Water [2]
CCOCc1cccc(C(C)(C)NC(=O)c2ncn3c(C(C)C)cc(COC)nc23)c1 [III-60] | < 10% | < 30% | 31.2 µg/mL (≈ 73.5 µM) |  |  | 
CCC(C)(NC(=O)c1ncn2c(C)cc(C)nc12)c1ccc(F)cc1 (stereo not drawn) [III-43] | 10 to 20% | > 60% | 14.7 µg/mL (≈ 43.2 µM) |  |  | 
Cc1cc(C)n2cnc(C(=O)Nc3ccc(-c4ccco4)nc3)c2n1 [III-31] |  |  |  | * (less than 10% Gcase activation) | + (less than 30% Gcase activation) | <0.01 µg/mL
C#Cc1ccc(NC(=O)c2ncn3c(C)cc(C)nc23)cn1 [III-5] | < 10% | < 30% | 26.6 µg/mL (≈ 91.3 µM) |  |  | 
C#Cc1cccc(C(C)(C)NC(=O)c2ncn3c(C)cc(C)nc23)c1 [III-41] | 10 to 20% | > 60% | 7.6 µg/mL (≈ 22.9 µM) |  |  | 
CO[C@H]1CC[C@H](C(C)(C)NC(=O)c2ncn3c(C)cc(C)nc23)CC1 [III-62] | < 10% | < 30% | 27 µg/mL (≈ 78.4 µM) |  |  | 
CCCOc1cccc(C(C)(C)NC(=O)c2ncn3c(COC)cc(COC)nc23)c1 [III-52] | 10 to 20% | > 60% | 37.6 µg/mL (≈ 88.2 µM) |  |  | 
Cc1cc(C)n2cnc(C(=O)Nc3ccc4c(c3)CCNC4)c2n1 [III-16] | < 10% | < 30% | 29.9 µg/mL (≈ 93 µM) |  |  | 
CCOc1ccc(C(C)NC(=O)c2ncn3c(C)cc(C)nc23)cc1 (stereo not drawn) [III-80] | < 10% | < 30% | 25.9 µg/mL (≈ 76.5 µM) |  |  | 
C#Cc1cccc(C(C)(C)NC(=O)c2ncn3c(C)cc(C(F)(F)F)nc23)c1 [III-40] | < 10% | < 30% | 40.5 µg/mL (≈ 105 µM) |  |  | 
Cc1cc(C)n2cnc(C(=O)N[C@@H](C)c3ccccc3F)c2n1 [III-74] | < 10% | < 30% | 37.3 µg/mL (≈ 119 µM) |  |  | 
Cc1cc(C)n2cnc(C(=O)N[C@@H](C)c3cccc(Cl)c3)c2n1 [III-77] | < 10% | 30 to 60% | 26 µg/mL (≈ 79.1 µM) |  |  | 
Cc1cc(C)n2cnc(C(=O)Nc3ccc(Cl)c(COc4cccnc4)c3)c2n1 [III-23] | 10 to 20% | > 60% | 0.3 µg/mL (≈ 0.736 µM) |  |  | 
Cc1cc(C)n2cnc(C(=O)Nc3ccc4c(=O)cc(C)oc4c3)c2n1 [III-17] | < 10% | < 30% | 0.4 µg/mL (≈ 1.15 µM) |  |  | 
Cc1cc(C)n2cnc(C(=O)Nc3ccc(-c4ccco4)nc3)c2n1 [III-66] | < 10% | < 30% | < 0.01 µg/mL |  |  | 
Cc1cc(C)n2cnc(C(=O)NC3CCc4ccccc4C3)c2n1 (stereo not drawn) [III-69] | < 10% | 30 to 60% | 16.6 µg/mL (≈ 51.8 µM) |  |  | 
Cc1cc(C)n2cnc(C(=O)Nc3ccc4c(C)cc(=O)oc4c3)c2n1 [III-9] | < 10% | < 30% | 0.3 µg/mL (≈ 0.861 µM) |  |  | 
CCCCO[C@H]1C[C@H]2CC[C@@H](C1)[C@H]2NC(=O)c1ncn2c(C)cc(C)nc12 [III-84] | > 20% | > 60% | 0.2 µg/mL (≈ 0.54 µM) |  |  | 
